Patent US20200405697A1, “Antitumor Agent” (Taiho Pharmaceutical Co., Ltd, priority 2017, published 2020)
pIC50: −log10 of the molar value.

Target: T1, human RNR (histidine tagged human M1 and human M2 proteins) (Homo sapiens, UniProt P23921)
T1 construct: made in house; host or cells: Escherichia coli
T1 sequence (P23921 1-792): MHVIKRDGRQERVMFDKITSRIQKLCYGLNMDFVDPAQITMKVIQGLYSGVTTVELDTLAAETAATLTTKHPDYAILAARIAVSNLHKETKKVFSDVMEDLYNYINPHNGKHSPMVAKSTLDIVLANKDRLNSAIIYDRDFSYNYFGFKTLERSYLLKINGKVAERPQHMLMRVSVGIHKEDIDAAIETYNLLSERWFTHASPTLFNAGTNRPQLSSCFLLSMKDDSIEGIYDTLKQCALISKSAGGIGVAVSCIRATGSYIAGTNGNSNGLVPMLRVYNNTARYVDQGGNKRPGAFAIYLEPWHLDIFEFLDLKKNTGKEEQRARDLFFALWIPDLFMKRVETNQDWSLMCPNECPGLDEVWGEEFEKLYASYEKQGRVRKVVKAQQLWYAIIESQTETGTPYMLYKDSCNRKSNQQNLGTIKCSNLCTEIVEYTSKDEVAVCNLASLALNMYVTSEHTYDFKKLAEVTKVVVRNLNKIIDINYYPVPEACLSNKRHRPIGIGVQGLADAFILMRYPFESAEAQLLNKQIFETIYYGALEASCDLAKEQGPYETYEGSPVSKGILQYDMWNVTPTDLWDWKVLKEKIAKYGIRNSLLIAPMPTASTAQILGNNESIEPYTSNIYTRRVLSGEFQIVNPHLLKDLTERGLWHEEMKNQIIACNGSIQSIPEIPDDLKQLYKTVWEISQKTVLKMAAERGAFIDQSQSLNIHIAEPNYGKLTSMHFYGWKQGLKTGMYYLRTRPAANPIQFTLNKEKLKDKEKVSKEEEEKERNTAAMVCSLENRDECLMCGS
Experiment: Human RNR inhibition effect (dCDP formation from CDP)
Type: biochemical
Conditions: 10 μM CDP, 37° C. for 30 minutes, read-out: RNR inhibitory activity IC50
Summary of the method: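 His-tagged human M1 (isoform 1) and N-terminal 59-aa-truncated M2 (isoform 2), E. coli-expressed, Ni-purified, preincubated 20 min with compound (1% DMSO). Reaction with 10 μM CDP, 2 mM ATP, 0.24 mM NADPH, 6 mM DTT, 4 mM Mg acetate, 100 mM KCl, 50 mM HEPES pH 7.2, 30 min at 37° C. dCDP formed quantified by reverse-phase HPLC after heat stop.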

| SMILES | pIC50 |
| --- | --- |
| Cc1ccc(F)c([C@@H](C)[C@H](NS(=O)(=O)c2ccc3c(c2)CCCO3)c2n[nH]c(=O)o2)c1C [Example 183, N-((1S,2R)-2-(6-fluoro-2,3-dimethylphenyl)-1-(5-oxo-4,5-dihydro-1,3,4-oxadiazol-2-yl)propyl)chroman-6-sulfonamide] | 6.49 |
| Cc1ccc(F)c([C@@H](C)[C@H](NS(=O)(=O)c2ccc3c(c2)N(C)CCC3)c2n[nH]c(=O)o2)c1C [Example 184, N-((1S,2R)-2-(6-fluoro-2,3-dimethylphenyl)-1-(5-oxo-4,5-dihydro-1,3,4-oxadiazol-2-yl)propyl)-1-methyl-1,2,3,4-tetrahydroquinoline-7-sulfonamide] | 6.66 |
| C=C(c1c(F)ccc(C)c1C)[C@H](NS(=O)(=O)c1ccc(Cl)cc1OC)c1n[nH]c(=O)o1 [Example 185, (S)-4-chloro-N-(2-(6-fluoro-2,3-dimethylphenyl)-1-(5-oxo-4,5-dihydro-1,3,4-oxadiazol-2-yl)allyl)-2-methoxybenzensulfonamide] | 6.22 |
| Cc1ccc(F)c([C@@H](C)[C@H](NS(=O)(=O)c2ccc(F)c(C(C)(C)O)c2F)c2n[nH]c(=O)o2)c1C [Example 186, 2,4-difluoro-N-((1S,2R)-2-(6-fluoro-2,3-dimethylphenyl)-1-(5-oxo-4,5-dihydro-1,3,4-oxadiazol-2-yl)propyl)-3-(2-hydroxypropan-2-yl)benzenesulfonamide] | 7.05 |
| C[C@H](c1cccc2c1CCC2)[C@H](NS(=O)(=O)c1ccc(Br)c(C(C)(C)O)c1)c1n[nH]c(=O)o1 [Example 188, 4-bromo-N-((1S,2R)-2-(2,3-dihydro-1H-inden-4-yl)-1-(5-oxo-4,5-dihydro-1,3,4-oxadiazol-2-yl)propyl)-3-(2-hydroxypropan-2-yl)benzenesulfonamide] | 6.19 |
| C[C@H](c1cccc2c1CCC2)[C@H](NS(=O)(=O)c1ccc(F)c(C(C)(C)O)c1F)c1n[nH]c(=O)o1 [Example 189, N-((1S,2R)-2-(2,3-dihydro-1H-inden-4-yl)-1-(5-oxo-4,5-dihydro-1,3,4-oxadiazol-2-yl)propyl)-2,4-difluoro-3-(2-hydroxypropan-2-yl)benzenesulfonamide] | 6.26 |
| C[C@H](c1cccc2c1CCC2)[C@H](NS(=O)(=O)c1ccc(Cl)c(C(C)(C)O)n1)c1n[nH]c(=O)o1 [Example 192, 5-chloro-N-((1S,2R)-2-(2,3-dihydro-1H-inden-4-yl)-1-(5-oxo-4,5-dihydro-1,3,4-oxadiazol-2-yl)propyl)-6-(2-hydroxypropan-2-yl)pyridine-2-sulfonamide] | 6.36 |
| Cc1ccc(F)c([C@@H](C)[C@H](NS(=O)(=O)c2ccc(Cl)c(C(C)(C)O)n2)c2n[nH]c(=O)o2)c1C [Example 193, 5-chloro-N-((1S,2R)-2-(6-fluoro-2,3-dimethylphenyl)-1-(5-oxo-4,5-dihydro-1,3,4-oxadiazol-2-yl)propyl)-6-(2-hydroxypropan-2-yl)pyridine-2-sulfonamide] | 7.05 |
| Cc1ccc(F)c([C@@H](C)[C@H](NS(=O)(=O)c2ccc3c(c2)C(C)(O)CCC3)c2n[nH]c(=O)o2)c1C (stereo partly drawn) [Example 194, N-((1S,2R)-2-(6-fluoro-2,3-dimethylphenyl)-1-(5-oxo-4,5-dihydro-1,3,4-oxadiazol-2-yl)propyl)-8-hydroxy-8-methyl-5,6,7,8-tetrahydronaphthalene-2-sulfonamide] | 6.44 |
| Cc1ccc(F)c([C@@H](C)[C@H](NS(=O)(=O)c2ccc3c(c2)C(C)(O)CCO3)c2n[nH]c(=O)o2)c1C (stereo partly drawn) [Example 195, N-((1S,2R)-2-(6-fluoro-2,3-dimethylphenyl)-1-(5-oxo-4,5-dihydro-1,3,4-oxadiazol-2-yl)propyl)-4-hydroxy-4-methylchroman-6-sulfonamide] | 6.74 |
| Cc1ccc(F)c([C@@H](C)[C@H](NS(=O)(=O)c2cc(C(C)(C)O)c(F)cc2C(N)=O)c2n[nH]c(=O)o2)c1C [Example 196, 5-fluoro-2-(N-((1S,2R)-2-(6-fluoro-2,3-dimethylphenyl)-1-(5-oxo-4,5-dihydro-1,3,4-oxadiazol-2-yl)propyl)sulfamoyl)-4-(2-hydroxypropan-2-yl)benzamide] | 7.10 |

Results, then the compound that gave them:

| pIC50 | SMILES |
| --- | --- |
| 7.22 | Cc1ccc(F)c([C@@H](C)[C@H](NS(=O)(=O)c2cc(C(C)(C)O)ccc2C(N)=O)c2n[nH]c(=O)o2)c1C [Example 197, 2-(N-((1S,2R)-2-(6-fluoro-2,3-dimethylphenyl)-1-(5-oxo-4,5-dihydro-1,3,4-oxadiazol-2-yl)propyl)sulfamoyl)-4-(2-hydroxypropan-2-yl)benzamide] |
| 7.22 | Cc1ccc(F)c([C@@H](C)[C@H](NS(=O)(=O)c2cc(C(C)(C)O)c(Cl)cc2C(N)=O)c2n[nH]c(=O)o2)c1C [Example 198, 5-chloro-2-(N-((1S,2R)-2-(6-fluoro-2,3-dimethylphenyl)-1-(5-oxo-4,5-dihydro-1,3,4-oxadiazol-2-yl)propyl)sulfamoyl)-4-(2-hydroxypropan-2-yl)benzamide] |
| 6.46 | CC#CC(O)(C#CC)c1ccc(C(N)=O)c(S(=O)(=O)N[C@H](c2n[nH]c(=O)o2)[C@H](C)c2c(F)ccc(C)c2C)c1 [Example 199] |
| 6.77 | CC(O)c1c(Cl)ccc(S(=O)(=O)N[C@H](c2n[nH]c(=O)o2)[C@H](C)c2cccc3c2CCC3)c1Cl (stereo partly drawn) [Example 201, 2,4-dichloro-N-((1S,2R)-2-(2,3-dihydro-1H-inden-4-yl)-1-(5-oxo-4,5-dihydro-1,3,4-oxadiazol-2-yl)propyl)-3-(1-hydroxyethyl)benzenesulfonamide] |
| 6.40 | CC(O)c1nc(S(=O)(=O)N[C@H](c2n[nH]c(=O)o2)[C@H](C)c2cccc3c2CCC3)ccc1Cl (stereo partly drawn) [Example 202, 5-chloro-N-((1S,2R)-2-(2,3-dihydro-1H-inden-4-yl)-1-(5-oxo-4,5-dihydro-1,3,4-oxadiazol-2-yl)propyl)-6-(1-hydroxyethyl)pyridine-2-sulfonamide] |
| 6.74 | COc1c(S(=O)(=O)N[C@H](c2n[nH]c(=O)o2)[C@H](C)c2cccc(C)c2C)ccc(Cl)c1C(C)O (stereo partly drawn) [Example 203, 4-chloro-N-((1S,2R)-2-(2,3-dimethylphenyl)-1-(5-oxo-4,5-dihydro-1,3,4-oxadiazol-2-yl)propyl)-3-(1-hydroxyethyl)-2-methoxybenzenesulfonamide] |
| 7.10 | COc1c(S(=O)(=O)N[C@H](c2n[nH]c(=O)o2)[C@H](C)c2c(F)ccc3ccccc23)ccc(Cl)c1C(C)O (stereo partly drawn) [Example 205, 4-chloro-N-((1S,2R)-2-(2-fluoronaphthalene-1-yl)-1-(5-oxo-4,5-dihydro-1,3,4-oxadiazol-2-yl)propyl)-3-(1-hydroxyethyl)-2-methoxybenzenesulfonamide] |
| 6.82 | CCc1ccc(F)c([C@@H](C)[C@H](NS(=O)(=O)c2ccc(Cl)c(C(C)O)c2OC)c2n[nH]c(=O)o2)c1C (stereo partly drawn) [Example 206A, 4-chloro-N-((1S,2R)-2-(3-ethyl-6-fluoro-2-methylphenyl)-1-(5-oxo-4,5-dihydro-1,3,4-oxadiazol-2-yl)propyl)-3-(1-hydroxyethyl)-2-methoxybenzenesulfonamide] |
| 6.74 | Cc1ccc(F)c([C@@H](C)[C@H](NS(=O)(=O)c2ccc(Cl)cc2C(=O)O)c2n[nH]c(=O)o2)c1C [Example 210, 5-chloro-2-(N-((1S,2R)-2-(6-fluoro-2,3-dimethylphenyl)-1-(5-oxo-4,5-dihydro-1,3,4-oxadiazol-2-yl)propyl)sulfamoyl)benzoic acid] |
| 6.92 | Cc1ccc(F)c([C@@H](C)[C@H](NS(=O)(=O)c2cccc3c2OCCC3(O)C(F)(F)F)c2n[nH]c(=O)o2)c1C (stereo partly drawn) [Example 211A, N-((1S,2R)-2-(6-fluoro-2,3-dimethylphenyl)-1-(5-oxo-4,5-dihydro-1,3,4-oxadiazol-2-yl)propyl)-4-hydroxy-4-(trifluoromethyl)chroman-8-sulfonamide] |
| 6.96 | COc1c(S(=O)(=O)N[C@H](c2n[nH]c(=O)o2)[C@H](C)c2c(F)ccc(C)c2C)ccc(Cl)c1C(C)(C)O [Example 212, 4-chloro-N-((1S,2R)-2-(6-fluoro-2,3-dimethylphenyl)-1-(5-oxo-4,5-dihydro-1,3,4-oxadiazol-2-yl)propyl)-3-(2-hydroxypropan-2-yl)-2-methoxybenzenesulfonamide] |
| 6.30 | Cc1ccc(F)c([C@@H](C)[C@H](NS(=O)(=O)c2ncc(Cl)cc2C(=O)O)c2n[nH]c(=O)o2)c1C [Example 213, 5-chloro-2-(N-((1S,2R)-2-(6-fluoro-2,3-dimethylphenyl)-1-(5-oxo-4,5-dihydro-1,3,4-oxadiazol-2-yl)propyl)sulfamoyl)nicotinic acid] |
